Experimental data published in ChEMBL document CHEMBL4052722, “Virtual screening, synthesis and biological evaluation of DNA intercalating antiviral agents” (Bioorg Med Chem Lett, 2017).

What was measured:
[1] = system: Vesicular stomatitis virus; assay: Antiviral activity against Vesicular stomatitis virus at 0.2 to 620 uM after 24 hrs post infection relative to control; assay type: functional
Bos taurus = species on record: Bos taurus; assay: Displacement of ethidium bromide from calf thymus DNA by fluorescence binding assay

| Compound | Activity [1] | log Ka (Bos taurus) |
| --- | --- | --- |
| CC1CCN(CC(=O)N/N=C2/C(=O)Nc3ccc4ccccc4c32)CC1 | 40% | 7.11 |
| CN1CCN(CCCn2c3ccccc3c3nc4ccccc4nc32)CC1 | 39% | 6.37 |
| O=C(CCN1C(=O)c2cccc3cccc(c23)C1=O)NCCCN1CCOCC1 | 30% | 5.72 |
| CN(C)CCn1c2ccccc2c2nc3c(nc21)CCCC3 | 88% |  |
| CCN(CC)CCCNC(=O)CCCn1c2ccccc2c2nc3ccccc3nc21 |  | 4.77 |
| O=C(CCN1CCCCC1)N/N=C1\C(=O)Nc2ccccc21 | 0% | 5.92 |
| c1ccc2nc3c(nc2c1)c1ccccc1n3CCN1CCCCCC1 | 90% | 6.16 |
| c1ccc2nc3c(nc2c1)c1ccccc1n3CCN1CCCC1 | 85% | 6.05 |
| CCCN(CCC)CCn1c2ccccc2c2nc3c(nc21)CCCC3 | 90% |  |
| O=C(CCCn1c2ccccc2c2nc3ccccc3nc21)NCCCNCCO |  | 5.09 |
| O=C(CCCN1C(=O)c2cccc3cccc(c23)C1=O)NCCN1CCOCC1 | 5% | 5.87 |
| c1ccc2nc3c(nc2c1)c1ccccc1n3CCCN1CCCCC1 | 28% | 6.04 |
| CC1CCCCN1CCn1c2ccc3ccccc3c2c2nc3ccccc3nc21 (stereo not given) | 20% | 6.83 |
| c1ccc2nc3c(nc2c1)c1ccccc1n3CCCCCN1CCCCC1 | 89% | 5.68 |
| c1ccc2nc3c(nc2c1)c1ccccc1n3CCCCCCN1CCCCC1 |  | 5.95 |
| CCCN(CCC)CCn1c2ccc3ccccc3c2c2nc3ccccc3nc21 | 16% | 6.91 |
| O=C(CCCn1c2ccccc2c2nc3ccccc3nc21)OCCN1CCCCC1 | 25% | 5.57 |
| O=C(CN1CCCCCC1)N/N=C1\C(=O)Nc2ccccc21 | 80% | 5.49 |
| O=C(CN1CCCC1)N/N=C1\C(=O)Nc2ccccc21 |  | 5.58 |
| CCN(CC)CCCNC(=O)CCCN1C(=O)c2cccc3cccc(c23)C1=O | 15% | 6.21 |
| CC1CCN(CCCn2c3ccccc3c3nc4ccccc4nc32)CC1 | 74% | 6.07 |
| O=C(CN1C(=O)c2cccc3cccc(c23)C1=O)NCCCN1CCOCC1 |  | 5.46 |
| c1ccc2c(c1)ccc1c2c2nc3ccccc3nc2n1CCN1CCOCC1 | 10% | 6.94 |
| O=C1c2cccc3cccc(c23)C(=O)N1CCN1CCCCC1 |  | 5.29 |
| CN(C)CCCNC(=O)c1cc2c(ccc3ccccc32)o1 |  | 5.48 |

| Compound | Activity [1] | log Ka (Bos taurus) |
| --- | --- | --- |
| CCCN(CCC)CCn1c2ccccc2c2nc3ccccc3nc21 | 90% | 6.09 |
| O=C(CN1CCCCC1)NN1C(=O)c2cccc3cccc(c23)C1=O |  | 6.2 |
| O=C(NCCCN1CCOCC1)c1cc2c(ccc3ccccc32)o1 |  | 5.64 |
| c1ccc2nc3c(nc2c1)c1ccccc1n3CCCCN1CCOCC1 | 35% | 5.94 |
| CCN(CC)CC(=O)N/N=C1\C(=O)Nc2ccccc21 | 80% | 5.96 |
| CNCCCN1C(=O)c2cccc3cccc(c23)C1=O |  | 5.57 |
| CCN(CC)CCCCCn1c2ccccc2c2nc3ccccc3nc21 | 12% | 5.61 |
| O=C(CCCn1c2ccccc2c2nc3ccccc3nc21)NCCN1CCNCC1 |  | 4.97 |
| O=C(CN1CCCCC1)N/N=C1\C(=O)Nc2ccccc21 | 100% | 5.64 |
| CCN(CC)CCN1C(=O)/C(=N\NC(=O)CCN2CCOCC2)c2ccccc21 |  | 6.08 |
| c1ccc2nc3c(nc2c1)c1ccccc1n3CCCCN1CCCCC1 | 11% | 5.93 |
| CC1CCN(CCn2c3ccc4ccccc4c3c3nc4ccccc4nc32)CC1 | 30% | 6.83 |
| CCN(CC)CCn1c2ccc3ccccc3c2c2nc3ccccc3nc21 | 14% | 6.79 |
| CCN(CC)CCN1C(=O)/C(=N\NC(=O)CN2CCC(C)CC2)c2ccccc21 | 100% | 6.47 |
| CCN(CC)CCOCCn1c2ccccc2c2nc3ccccc3nc21 | 56% | 5.26 |
| CCN(CC)CCCNC(=O)CCN1C(=O)c2cccc3cccc(c23)C1=O | 10% | 5.79 |
| CCN(CC)CCNC(=O)CN1C(=O)c2cccc3cccc(c23)C1=O |  | 5.54 |
| CN(C)CCCNC(=O)CCCCCN1C(=O)c2cccc3cccc(c23)C1=O | 100% | 6.1 |
| CN1CCN(CCn2c3ccccc3c3nc4c(nc32)CCCC4)CC1 | 100% |  |
| O=C(NCCN1CCOCC1)c1cc2c(ccc3ccccc32)o1 |  | 4.58 |
| O=C(Cn1c2ccccc2c2nc3ccccc3nc21)OCCCN1CCOCC1 | 15% | 5.14 |
| CCN(CC)CCN1C(=O)/C(=N\NC(=O)CCN2CCN(C)CC2)c2ccccc21 | 100% | 6.15 |
| CN(C)CCCNC(=O)CCCN1C(=O)c2cccc3cccc(c23)C1=O |  | 5.95 |
| O=C(Cn1c2ccccc2c2nc3ccccc3nc21)OCCN1CCOCC1 | 45% | 5.18 |
| CCN(CC)CCCOC(=O)Cn1c2ccccc2c2nc3ccccc3nc21 | 0% | 5.17 |

| Compound | Activity [1] | log Ka (Bos taurus) |
| --- | --- | --- |
| CCN(CC)CCCOC(=O)CCCn1c2ccccc2c2nc3ccccc3nc21 | 0% | 5.29 |
| CCN(CC)CCCN1C(=O)c2cccc3cccc(c23)C1=O |  | 6.57 |
| CN(C)CCn1c2ccc3ccccc3c2c2nc3ccccc3nc21 | 21% | 6.94 |
| O=C(CCCCCN1C(=O)c2cccc3cccc(c23)C1=O)NCCCN1CCOCC1 | 50% | 6.03 |
| CCN(CC)CCN1C(=O)/C(=N\NC(=O)CN2CCCCCC2)c2ccccc21 |  | 6.32 |
| CCN(CC)CCN1C(=O)/C(=N/NC(=O)CCN2CCCCCC2)c2ccccc21 |  | 6.03 |
| O=C(CN1CCCCCC1)N/N=C1/C(=O)Nc2ccc3ccccc3c21 | 20% | 6.52 |
| CCCN(CCC)CCCCn1c2ccccc2c2nc3ccccc3nc21 | 13% | 5.49 |
| O=C(CN1CCOCC1)N/N=C1\C(=O)Nc2ccccc21 |  | 5.28 |
| CCN(CC)CCCCCCn1c2ccccc2c2nc3ccccc3nc21 | 75% | 5.65 |
| c1ccc2c(c1)c1nc3c(nc1n2CCN1CCOCC1)CCCC3 | 66% |  |
| O=C(Cn1c2ccccc2c2nc3ccccc3nc21)NCCCNCCO | 72% | 5.06 |
| CCN(CC)CCNC(=O)CCCCCN1C(=O)c2cccc3cccc(c23)C1=O |  | 5.49 |
| CN(C)CCCCn1c2ccccc2c2nc3ccccc3nc21 | 30% | 5.61 |
| CCN(CC)CC(=O)N/N=C1/C(=O)Nc2ccc3ccccc3c21 | 30% | 6.3 |
| CCCN(CCC)CCCn1c2ccccc2c2nc3ccccc3nc21 | 41% | 6.13 |
| O=C(CN1CCOCC1)N/N=C1/C(=O)Nc2ccc3ccccc3c21 | 15% | 6.76 |
| CC1CCN(CCC(=O)N/N=C2\C(=O)Nc3ccccc32)CC1 | 80% | 5.91 |
| CCN(CC)CCOC(=O)Cn1c2ccccc2c2nc3ccccc3nc21 | 45% | 5.42 |
| O=C(CCCCCN1C(=O)c2cccc3cccc(c23)C1=O)NCCN1CCOCC1 |  | 5.53 |
| O=C(Cn1c2ccccc2c2nc3ccccc3nc21)NCCN1CCCCC1 | 80% | 5.15 |
| c1ccc2nc3c(nc2c1)c1ccccc1n3CCCCCCN1CCOCC1 | 6% | 5.73 |
| OCCNCCn1c2ccc3ccccc3c2c2nc3ccccc3nc21 | 20% | 6.8 |
| CCN(CC)CCCCn1c2ccccc2c2nc3ccccc3nc21 | 10% | 6.22 |
| CCN(CC)CCN1C(=O)/C(=N\NC(=O)CN2CCN(C)CC2)c2ccccc21 | 0% | 5.99 |

| Compound | Activity [1] | log Ka (Bos taurus) |
| --- | --- | --- |
| CN(C)CCCNC(=O)CN1C(=O)c2cccc3cccc(c23)C1=O |  | 5.63 |
| OCCNCCCCn1c2ccccc2c2nc3ccccc3nc21 | 32% | 5.96 |
| O=C1c2cccc3cccc(c23)C(=O)N1CCNCCO |  | 5.57 |
| c1ccc2c(c1)ccc1c2c2nc3ccccc3nc2n1CCN1CCCCC1 | 20% | 6.61 |
| CC1CCCCN1CCCCn1c2ccccc2c2nc3ccccc3nc21 (stereo not given) | 26% | 5.6 |
| CN1CCN(CCCCCCn2c3ccccc3c3nc4ccccc4nc32)CC1 |  | 6.45 |
| OCCNCCn1c2ccccc2c2nc3ccccc3nc21 | 80% | 6.31 |
| c1ccc2nc3c(nc2c1)c1ccccc1n3CCOCCN1CCCCC1 | 51% | 5.19 |
| CN(C)CCCNC(=O)CCN1C(=O)c2cccc3cccc(c23)C1=O |  | 5.92 |
| CCN(CC)CC(=O)NN1C(=O)c2cccc3cccc(c23)C1=O |  | 5.6 |
| CCN(CC)CCNC(=O)c1cc2c(ccc3ccccc32)o1 |  | 5.77 |
| O=C1c2cccc3cccc(c23)C(=O)N1NCCN1CCOCC1 |  | 5.38 |
| O=C(CN1C(=O)c2cccc3cccc(c23)C1=O)NCCN1CCOCC1 |  | 5.68 |
| CCN(CC)CCN1C(=O)c2cccc3cccc(c23)C1=O |  | 6.98 |
| CCN(CC)CCN1C(=O)/C(=N\NC(=O)CN2CCCCC2)c2ccccc21 |  | 5.74 |
| O=C(Cn1c2ccccc2c2nc3ccccc3nc21)NCCN1CCNCC1 |  | 5.72 |
| O=C(CN1CCOCC1)NN1C(=O)c2cccc3cccc(c23)C1=O |  | 5.34 |
| CCN(CC)CCCNC(=O)CN1C(=O)c2cccc3cccc(c23)C1=O |  | 5.31 |
| CC1CCN(CCn2c3ccccc3c3nc4c(nc32)CCCC4)CC1 | 95% |  |
| CCN(CC)CCCNC(=O)c1cc2c(ccc3ccccc32)o1 |  | 6.12 |
| CN(C)CCCN1C(=O)c2cccc3cccc(c23)C1=O |  | 7.07 |
| CN1CCN(CCCCCn2c3ccccc3c3nc4ccccc4nc32)CC1 |  | 6.23 |
| O=C1c2cccc3cccc(c23)C(=O)N1CCCN1CCOCC1 |  | 6.93 |
| c1ccc2c(c1)c1nc3c(nc1n2CCN1CCCCC1)CCCC3 | 65% |  |
| O=C(CCCn1c2ccccc2c2nc3ccccc3nc21)NCCNCCO |  | 5.05 |
